Measured values reported in US8653056B2, “Method of preparation of a soluble formulation of water-insoluble pentacyclic and tetracyclic terpenoids, a soluble formulation of a pentacyclic or tetracyclic terpenoid and a pharmaceutical composition containing this soluble formulation” (Univerzita Karlova V Praze, Prirodovedecka Fakulta, priority 2006, dated 2014).

Assay: Concentration of dissolved triterpenoid in the aqueous cyclodextrin solution (HPLC-ESI MS)
Format: physicochemical
Settings: solution method A: water, saturated sodium hydrogencarbonate solution, ethanol, 2-hydroxypropyl-γ-cyclodextrin, 50° C.
Procedure: (§1) Into the resulting colourless, viscous solution, soluble triterpene derivative (1.50 g) is added at once and the mixture is again vigorously stirred at the temperature of 50° C. […] After the triterpenoid is completely dissolved, the resulting clear solution is cooled to room temperature, filtered with a syringe filter (hydrophilic, pore size 0.22 μm) in order to be sterile and is placed in a refrigerator.
as §1, with “Method B: In a mixture of water (14.0 ml) and propylene glycol (6.0 ml), 2-hydroxypropyl-γ-cyklodextrin (7.00 g) is dissolved at the temperature of 50° C. under vigorous stirring. Into” for “Into”, “derivate (1.00” for “derivative (1.50”, “and” for “and the mixture”
Analytic Determination of the Concentration of Dissolved Triterpenoids in the Application Form and in Plasma Samples
(§2) HPLC-ESI MS technique was used or the determination of the concentration of dissolved triterpenoids. The samples were measured in one analytical batch with calibration solutions and blind control. The sample for the measurement was prepared from 50 μl of aqueous solution containing the inclusion compound by dilution with methanol to the volume of 10 ml. Subsequently, 10 μl of the sample solution after the first dilution is further diluted to 1 ml by the mobile phase. The blind control was obtained from 50 μl of pre-prepared aqueous solution of 2-hydroxypropyl-γ-cyklodextrin by dilution with methanol to 10 ml. Subsequently, 10 μl of the blind control solution after the first dilution is further diluted to 1 ml by methanol. Stock solutions of standards (concentration 0.2 mg/ml) were prepared by weighing 2.00 mg of analyte to 10 ml graduated flask and dissolution in methanol. The calibration samples were then prepared by dilution of the stock solution with mobile phase (0.4 μg/ml resp. 4 μg/ml).
The concentration was determined by comparison with standard and calculated to the original solution containing the inclusion compound.

Compound	Conc. of dissolved substance [µg/mL]
C=C(C)C1CCC2(C(=O)OC)CCC3(C)C(CCC4C5(C)CCC(OC(=O)C6CC=CCC6C(=O)O)C(C)(C)C5CCC43C)C12 (mixture of isomers) [2m]	43000
C=C(C)C1CCC2(COC(=O)CCC(=O)O)CCC3(C)C(CCC4C5(C)CCC(OC(=O)CCC(=O)O)C(C)(C)C5CCC43C)C12 (centres unmarked) [1a, betulin dihemisuccinate]	54000
C=C(C)[C@@H]1CC[C@]2(COC(=O)c3ccccc3C(=O)O)CC[C@]3(C)[C@H](CC[C@@H]4[C@@]5(C)CC[C@H](OC(=O)c6ccccc6C(=O)O)C(C)(C)[C@@H]5CC[C@]43C)[C@@H]12 [1b, betulin dihemiphtalate]	39000
C=C(C)[C@@H]1CC[C@]2(C(=O)OCC)CC[C@]3(C)[C@H](CC[C@@H]4[C@@]5(C)CC[C@H](OC(=O)CCC(=O)O)C(C)(C)[C@@H]5CC[C@]43C)[C@@H]12 [2b]	45000
C=C(C)[C@@H]1CC[C@]2(C(=O)OCC)CC[C@]3(C)[C@H](CC[C@@H]4[C@@]5(C)CC[C@H](OC(=O)c6ccccc6C(=O)O)C(C)(C)[C@@H]5CC[C@]43C)[C@@H]12 [2c]	41000
C=C(C)[C@@H]1CC[C@]2(C(=O)O)CC[C@]3(C)[C@H](CC[C@@H]4[C@@]5(C)CC[C@H](OC(=O)CCC(=O)O)C(C)(C)[C@@H]5CC[C@]43C)[C@@H]12 [2e]	51000
C=C(C)[C@@H]1CC[C@]2(C(=O)OC)CC[C@]3(C)[C@H](CC[C@@H]4[C@@]5(C)CC[C@H](OC(=O)CCCC(=O)O)C(C)(C)[C@@H]5CC[C@]43C)[C@@H]12 [2i]	51000
C=C(C)[C@@H]1CC[C@]2(C(=O)O[C@@H]3O[C@H](CO)[C@@H](O)[C@H](O)[C@H]3O)CC[C@]3(C)[C@H](CC[C@@H]4[C@@]5(C)CC[C@H](O)C(C)(C)[C@@H]5CC[C@]43C)[C@@H]12 [2j]	59000
CC(=O)O[C@H]1CC[C@]2(C)[C@H]3CC[C@@H]4C5=C(C(C)C)C(=O)C[C@]5(C(=O)OCC(=O)O)CC[C@@]4(C)[C@]3(C)CC[C@H]2C1(C)C [4a]	59000
CCOC(=O)[C@@]12CC[C@]3(C)[C@H](CC[C@@H]4[C@@]5(C)CC[C@H](OC(=O)CCC(=O)O)C(C)(C)[C@@H]5CC[C@]43C)C1=C(C(C)C)C(=O)C2 [4e]	53000
CCOC(=O)[C@@]12CC[C@]3(C)[C@H](CC[C@@H]4[C@@]5(C)CC[C@H](OC(=O)c6ccccc6C(=O)O)C(C)(C)[C@@H]5CC[C@]43C)C1=C(C(C)C)C(=O)C2 [4f]	28000
CCOC(=O)[C@@]12CC[C@]3(C)[C@H](CC[C@@H]4[C@@]5(C)CC[C@H](OC(=O)CC(C)(C)CC(=O)O)C(C)(C)[C@@H]5CC[C@]43C)C1=C(C(C)C)C(=O)C2 [4q]	58000
CCOC(=O)[C@@]12CC[C@]3(C)[C@H](CC[C@@H]4[C@@]5(C)CC[C@H](OC(=O)CC(C)(C)C(=O)O)C(C)(C)[C@@H]5CC[C@]43C)C1=C(C(C)C)C(=O)C2 [4r]	44000
COC(=O)[C@@]12CC[C@]3(C)[C@H](CC[C@@H]4[C@@]5(C)CC[C@H](OC(=O)CC(C)(C)C(=O)O)C(C)(C)[C@@H]5CC[C@]43C)C1=C(C(C)C)C(=O)C2 [4s]	44000
CC(C)C1=C2[C@H]3CC[C@@H]4[C@@]5(C)CC[C@H](OC(=O)CC(C)(C)CC(=O)O)C(C)(C)[C@@H]5CC[C@@]4(C)[C@]3(C)CC[C@@]2(C(=O)O)CC1=O [4u]	44000
CCOC(=O)[C@@]12CC[C@]3(C)[C@H](CC[C@@H]4[C@@]5(C)CC[C@H](OC(=O)COCC(=O)O)C(C)(C)[C@@H]5CC[C@]43C)C1=C(C(C)C)C(=O)C2 [4x]	44000
CC1(C)C(OC(=O)CCC(=O)O)CCC2(C)C1CCC1(C)C2CCC2C(=O)C(COC(=O)CCC(=O)O)(C(=O)O)CCC21C (centres unmarked) [7c]	73000
CC1(C)C(OC2OC(CO)C(O)C(O)C2O)CCC2(C)C1CCC1(C)C2CCC2C(=O)C(COC3OC(CO)C(O)C(O)C3O)(C(=O)O)CCC21C (centres unmarked) [7f]	72000
C=C(C)[C@@H]1CC[C@]2(C(=O)O)CC[C@]3(C)[C@H](CC[C@@H]4[C@@]5(C)CC[C@H](O)C(C)(C)[C@@H]5CC[C@]43C)[C@@H]12 [compound 2, Betulinic acid, reference compound]	38000
C=C(C=O)[C@@H]1CC[C@]2(C(=O)OCC)CC[C@]3(C)[C@H](CC[C@@H]4[C@@]5(C)CC[C@H](OC(=O)c6ccccc6C(=O)O)C(C)(C)[C@@H]5CC[C@]43C)[C@@H]12 [hemiphtalate 3b]	40000

Same assay, conditions: solution method B: water, propylene glycol, 2-hydroxypropyl-γ-cyclodextrin, 50° C.

Compound	Conc. of dissolved substance
C=C(C)[C@@H]1CC[C@]2(CO[C@@H]3O[C@H](CO)[C@@H](O)[C@H](O)[C@H]3O)CC[C@]3(C)[C@H](CC[C@@H]4[C@@]5(C)CC[C@H](O[C@@H]6O[C@H](CO)[C@@H](O)[C@H](O)[C@H]6O)C(C)(C)[C@@H]5CC[C@]43C)[C@@H]12 [1c, betulin diglucoside]	55000 µg/mL
C=C(C)[C@@H]1CC[C@]2(C(=O)OCC)CC[C@]3(C)[C@H](CC[C@@H]4[C@@]5(C)CC[C@H](O)C(C)(C)[C@@H]5CC[C@]43C)[C@@H]12 [2a, Ethyl-betulinate]	n (n = concentration lower than the detection threshold, i.e. 1 ng/ml)
C=C(C)[C@@H]1CC[C@]2(C(=O)OCC)CC[C@]3(C)[C@H](CC[C@@H]4[C@@]5(C)CC[C@H](O[C@@H]6O[C@H](CO)[C@@H](O)[C@H](O)[C@H]6O)C(C)(C)[C@@H]5CC[C@]43C)[C@@H]12 [2d]	43000 µg/mL
C=C(C)[C@@H]1CC[C@]2(C(=O)OC)CC[C@]3(C)[C@H](CC[C@@H]4[C@@]5(C)CC[C@H](O)C(C)(C)[C@@H]5CC[C@]43C)[C@@H]12 [2h, Methyl betulinate]	n (n = concentration lower than the detection threshold, i.e. 1 ng/ml)
C=C(C)[C@@H]1CC[C@]2(C(=O)O[C@@H]3O[C@H](CO)[C@@H](O)[C@H](O)[C@H]3O)CC[C@]3(C)[C@H](CC[C@@H]4[C@@]5(C)CC[C@H](O)C(C)(C)[C@@H]5CC[C@]43C)[C@@H]12 [2j]	70000 µg/mL
C=C(C=O)[C@@H]1CC[C@]2(C(=O)OCC)CC[C@]3(C)[C@H](CC[C@@H]4[C@@]5(C)CC[C@H](O)C(C)(C)[C@@H]5CC[C@]43C)[C@@H]12 [3a]	n (n = concentration lower than the detection threshold, i.e. 1 ng/ml)
CC(=O)O[C@H]1CC[C@]2(C)[C@H]3CC[C@@H]4C5=C(C(C)C)C(=O)C[C@]5(C(=O)OCC[N+](C)(C)C)CC[C@@]4(C)[C@]3(C)CC[C@H]2C1(C)C.[Br-] [4b]	47000 µg/mL
CC(=O)O[C@H]1CC[C@]2(C)[C@H]3CC[C@@H]4C5=C(C(C)C)C(=O)C[C@]5(C(=O)OCC[n+]5ccccc5)CC[C@@]4(C)[C@]3(C)CC[C@H]2C1(C)C.[Br-] [4c]	33000 µg/mL
COC(=O)C12CCC3(C)C(CCC4C5(C)CCC(O)C(C)(C)C5CCC43C)C1=C(C(C)C)C(=O)C2 (centres unmarked) [4d]	n (n = concentration lower than the detection threshold, i.e. 1 ng/ml)
CCOC(=O)[C@@]12CC[C@]3(C)[C@H](CC[C@@H]4[C@@]5(C)CC[C@H](O[C@@H]6C[C@@H](OC(C)=O)[C@@H](OC(C)=O)[C@@H](COC(C)=O)O6)C(C)(C)[C@@H]5CC[C@]43C)C1=C(C(C)C)C(=O)C2 [4j]	60000 µg/mL
COC(=O)[C@@]12CC[C@]3(C)[C@H](CC[C@@H]4[C@@]5(C)CC[C@H](O[C@@H]6C[C@@H](OC(C)=O)[C@H](OC(C)=O)[C@@H](COC(C)=O)O6)C(C)(C)[C@@H]5CC[C@]43C)C1=C(C(C)C)C(=O)C2 [4l]	61000 µg/mL
CC1(C)C(OC2OC(CO)C(O)C(O)C2O)CCC2(C)C1CCC1(C)C2CCC2C(=O)C(COC3OC(CO)C(O)C(O)C3O)(C(=O)O)CCC21C (centres unmarked) [7f]	79000 µg/mL
C=C(C)[C@@H]1CC[C@]2(CO)CC[C@]3(C)[C@H](CC[C@@H]4[C@@]5(C)CC[C@H](O)C(C)(C)[C@@H]5CC[C@]43C)[C@@H]12 [Betulin, reference compound]	n (n = concentration lower than the detection threshold, i.e. 1 ng/ml)

Assay: Bioavailability and pharmacokinetic profile at oral administration to laboratory mice
Format: in vivo, outbred mice CD-1
Settings: intragastric single dose 200 μl, soluble cyclodextrin formulation
Procedure: Determination of Bioavailability and Pharmacokinetic Profile at Oral Administration of the Compounds to Laboratory Mice
Soluble cyclodextrin formulations of terpenoid compounds, prepared in accordance with the aforementioned methods A or B, were administered without dilution to outbred mice CD-1 intragastrically (200 μl in a single dose) as aqueous solutions by injection syringe equipped with a gastric tube. Insoluble compounds were administered intragastrically as well (200 μl in a single dose), but in the form of aqueous suspensions in 0.5-1% carboxymethyl cellulose. In time intervals 2, 4, 6, 8, 12 and 24 h, blood was taken from the mice, the blood was centrifuged and the obtained plasma was subsequently analysed by HPLC-ESI MS technique.
as §2
The analysis was carried out at ODS Hypersil 125×2.1 mm, 5 um, SN 0745415X, Thermo EC column, ODS 4.0×3.0 mm precolumn, Phenomenex, mobile phase A—100 mmol/L aqueous solution of ammonium formate, pH is adjusted to 5 by formic acid, B—100 mmol/L methanolic solution of ammonium formate, column temperature: 25° C., linear gradient or isocratic elution, injected volume 30 μl. The concentration was determined by comparison with standard and calculated to the original solution containing the inclusion compound.

Compound	oral availability
C=C(C)[C@@H]1CC[C@]2(C(=O)OCC)CC[C@]3(C)[C@H](CC[C@@H]4[C@@]5(C)CC[C@H](OC(=O)CCC(=O)O)C(C)(C)[C@@H]5CC[C@]43C)[C@@H]12 [2b]	prove oral availability
C=C(C)[C@@H]1CC[C@]2(C(=O)OC)CC[C@]3(C)[C@H](CC[C@@H]4[C@@]5(C)CC[C@H](OC(=O)CCCC(=O)O)C(C)(C)[C@@H]5CC[C@]43C)[C@@H]12 [2i]	prove oral availability
